Laboratory results: ChEMBL document CHEMBL4673185 (RSC Med Chem, 2020)
Residues, ends and D or L forms follow the SMILES beside them.

Molecular target: T1, Acid-sensing ion channel 3 (Rattus norvegicus, UniProt O35240)
T1 sequence (O35240 whole entry): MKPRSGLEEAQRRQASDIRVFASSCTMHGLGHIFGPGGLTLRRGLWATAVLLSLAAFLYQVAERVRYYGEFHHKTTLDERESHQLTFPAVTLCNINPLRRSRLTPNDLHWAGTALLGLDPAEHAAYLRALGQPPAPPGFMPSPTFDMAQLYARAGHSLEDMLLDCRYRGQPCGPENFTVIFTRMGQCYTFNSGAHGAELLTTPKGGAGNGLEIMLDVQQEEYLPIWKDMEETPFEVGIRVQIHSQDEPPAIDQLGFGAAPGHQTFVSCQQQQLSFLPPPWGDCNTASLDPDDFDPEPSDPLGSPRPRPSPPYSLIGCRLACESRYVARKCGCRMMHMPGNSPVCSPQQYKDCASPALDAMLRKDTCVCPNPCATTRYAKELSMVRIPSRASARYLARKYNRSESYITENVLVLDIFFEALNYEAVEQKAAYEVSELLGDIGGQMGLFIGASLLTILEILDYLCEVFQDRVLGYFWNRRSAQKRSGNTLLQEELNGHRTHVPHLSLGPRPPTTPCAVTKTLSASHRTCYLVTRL
Assay: Modulation of rat ASIC3 expressed in Xenopus laevis oocytes at -70 mV holding potential by two-electrode voltage clamp method
Assay type: cell-based

N=C(N)NCCC[C@H](NC(=O)[C@@H]1CCCN1C(=O)[C@@H](N)CCCNC(=N)N)C(=O)N[C@@H](Cc1ccccc1)C(=O)O (H-RPRF-OH)
EC50: 3 µM
